Measurements reported in patent publication US20100144008A1, “TREATMENT OF FABRY DISEASE” (ACADEMISCH ZIEKENHUIS BIJ DE UNIVERSITEIT VAN AMSTERDAM, priority 2006, published 2010).
Like-named read-outs stand apart in the source and are kept apart here.

How the values were obtained:
[1] = Partitioning of lyso-CTH in Bligh and Dyer and butanol/water extraction; type: physicochemical
Method: An optimal extraction procedure for lyso-CTH from plasma samples was established. A double extraction was carried out, first a Bligh and Dyer extraction followed by butanol extraction.

alpha-galactosidase A = target: T1, alpha-galactosidase A (Homo sapiens, UniProt P06280); assay: Inhibition of alpha-galactosidase A by lyso-CTH; type: biochemical
T1 sequence (P06280 32-429): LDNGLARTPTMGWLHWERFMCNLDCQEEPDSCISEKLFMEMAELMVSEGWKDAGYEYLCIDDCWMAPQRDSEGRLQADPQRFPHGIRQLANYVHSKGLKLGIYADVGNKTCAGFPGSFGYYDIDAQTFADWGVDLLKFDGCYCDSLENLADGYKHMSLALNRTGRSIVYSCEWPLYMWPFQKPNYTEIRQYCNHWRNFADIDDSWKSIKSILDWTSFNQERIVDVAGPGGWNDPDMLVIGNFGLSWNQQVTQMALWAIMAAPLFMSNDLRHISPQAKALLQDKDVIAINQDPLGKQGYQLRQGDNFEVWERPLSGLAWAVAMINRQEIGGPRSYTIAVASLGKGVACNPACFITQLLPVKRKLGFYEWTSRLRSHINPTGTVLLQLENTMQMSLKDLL

alpha-galactosidase B = target: T2, alpha-galactosidase B (Homo sapiens, UniProt P17050); assay: Inhibition of alpha-galactosidase B by lyso-CTH; type: biochemical
T2 sequence (P17050 18-411): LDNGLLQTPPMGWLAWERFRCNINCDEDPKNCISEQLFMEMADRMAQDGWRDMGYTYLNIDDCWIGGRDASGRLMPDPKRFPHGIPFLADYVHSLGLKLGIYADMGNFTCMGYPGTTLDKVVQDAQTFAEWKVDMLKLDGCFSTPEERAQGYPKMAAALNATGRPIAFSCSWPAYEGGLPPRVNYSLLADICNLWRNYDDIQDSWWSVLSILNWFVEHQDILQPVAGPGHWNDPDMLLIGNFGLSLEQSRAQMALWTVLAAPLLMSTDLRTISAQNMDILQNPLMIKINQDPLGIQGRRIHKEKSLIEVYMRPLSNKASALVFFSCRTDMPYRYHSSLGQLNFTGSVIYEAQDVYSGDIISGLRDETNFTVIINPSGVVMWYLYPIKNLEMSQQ

SMC-41 cell line = assay: Toxic effect in vitro: 3H thymidine incorporation and proliferation in SMC-41 cell line; type: cell-based; conditions: lyso-CTH 0.065-0.65 μM (as found in plasma of Fabry patients); for proliferation of SMC-41 (smooth muscle cell proliferation): in vitro
Method: The toxic effect of lyso-CTH was determined in vitro in SMC-41 cell line. ^3H thymidine incorporation (per 24 h) was determined as a function of lyso-CTH concentration.

[2] = Plasma circulation of alphaGAL replacement enzyme in mouse model of Fabry disease; type: in vivo; conditions: compared to underivatised agalsidase beta
Method: Via standard methods agalsidase beta (Fabrazyme®, Genzyme) is pegylated.
In a mouse model of Fabry disease at different time-points plasma samples are analysed for the presence of agalsidase beta to give reference values and at the same different time-points plasma samples are analysed for the presence of pegylated agalsidase beta.

lyso-CTH = assay: Plasma lyso-CTH concentration in mouse model of Fabry disease after enzyme; type: in vivo; conditions: compared to underivatised agalsidase beta

Molecule | Partitioning of lyso-CTH (% of total), lower phase ([1]; Bligh and Dyer extraction) | Partitioning of lyso-CTH (% of total), upper phase ([1]; Bligh and Dyer extraction) | Partitioning of lyso-CTH (% of total), lower phase ([1]; butanol/water extraction) | Partitioning of lyso-CTH (% of total), upper phase ([1]; butanol/water extraction) | Inhibition of alpha-galactosidase A (alpha-galactosidase A) | Inhibition of alpha-galactosidase A (alpha-galactosidase A; listed as Lyso-CTH) | Inhibition of alpha-galactosidase B (alpha-galactosidase B) | Inhibition of alpha-galactosidase B (alpha-galactosidase B; listed as Lyso-CTH) | 3H thymidine incorporation (per 24 h) (SMC-41 cell line; SMC-41 cell line) | proliferation of SMC-41 (smooth muscle cell proliferation) (SMC-41 cell line) | proliferation of SMC-41 (smooth muscle cell proliferation) (SMC-41 cell line; listed as Lyso-CTH) | plasma circulation time [2] | concentration of lyso-CTH in the plasma samples (lyso-CTH)
CCCCCCCCCCCCC/C=C/[C@@H](O)[C@@H](N)CO[C@@H]1O[C@H](CO)[C@@H](O[C@@H]2O[C@H](CO)[C@H](O[C@H]3O[C@H](CO)[C@H](O)[C@H](O)[C@H]3O)[C@H](O)[C@H]2O)[C@H](O)[C@H]1O [lyso-CTH, lyso-ceramide trihexosamide] | 10 % of total | 90 % of total | 2 % of total | 99 % of total | inhibits | potent inhibitor | inhibits | potent inhibitor | increased isotope incorporation | increased proliferation | promote in vitro smooth muscle cell proliferation | – | –
pegylated agalsidase beta: agalsidase beta (Fabrazyme, Genzyme) pegylated via standard methods | – | – | – | – | – | – | – | – | – | – | – | increase in plasma circulation time | significantly lower
